Legend:
Experiment in all cases: cells
A704 = assay type: functional, cell-based, Homo sapiens; conditions: Homo sapiens, A704;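 note: growth inhibition of human A704 cells, read out with a cell viability assay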
Description: SANGER: Inhibition of human A704 cell growth in a cell viability assay.

MDA-MB-453 = assay type: functional, cell-based, Homo sapiens; conditions: Homo sapiens, MDA-MB-453
Description: SANGER: Inhibition of human MDA-MB-453 cell growth in a cell viability assay.

KNS-42 = assay type: functional, cell-based, Homo sapiens; conditions: Homo sapiens, KNS-42;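 note: growth inhibition of KNS-42 cells, read out with a cell viability assay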
Description: SANGER: Inhibition of human KNS-42 cell growth in a cell viability assay.

COLO-320-HSR = assay type: functional, cell-based; conditions: Homo sapiens;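 note: growth inhibition of COLO-320-HSR cells, determined with a cell viability assay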
Description: SANGER: Inhibition of human COLO-320-HSR cell growth in a cell viability assay.

KM12 = assay type: functional, cell-based, Homo sapiens; conditions: Homo sapiens, KM12;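 note: KM12 cell growth inhibition, read out with a cell viability assay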
Description: SANGER: Inhibition of human KM12 cell growth in a cell viability assay.

HCE-T = assay type: functional, cell-based, Homo sapiens; conditions: Homo sapiens, HCE-T;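 note: cell viability assay read-out, reporting inhibition of HCE-T cell growth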
Description: SANGER: Inhibition of human HCE-T cell growth in a cell viability assay.

RCC10RGB = assay type: functional, cell-based, Homo sapiens; conditions: Homo sapiens, RCC10RGB;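 note: growth inhibition of human RCC10RGB cells, read out by a cell viability assay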
Description: SANGER: Inhibition of human RCC10RGB cell growth in a cell viability assay.

TE-1 = assay type: functional, cell-based, Homo sapiens; conditions: Homo sapiens, TE-1
Description: SANGER: Inhibition of human TE-1 cell growth in a cell viability assay.

no-11 = assay type: functional, cell-based, Homo sapiens; conditions: Homo sapiens;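 note: growth inhibition of human NO-11 cells, read out with a cell viability assay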
Description: SANGER: Inhibition of human no-11 cell growth in a cell viability assay.

SHP77 = assay type: functional, cell-based, Homo sapiens, SHP-77; conditions: Homo sapiens, SHP77;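 note: growth inhibition of human SHP-77 cells measured by a cell viability assay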
Description: SANGER: Inhibition of human SHP-77 cell growth in a cell viability assay.

NCI-H2405 = assay type: functional, cell-based, Homo sapiens; conditions: Homo sapiens, NCI-H2405;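 note: growth inhibition of the human cell line, read out with a cell viability assay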
Description: SANGER: Inhibition of human NCI-H2405 cell growth in a cell viability assay.

DU-4475 = assay type: functional, cell-based; conditions: Homo sapiens
Description: SANGER: Inhibition of human DU-4475 cell growth in a cell viability assay.

BB65-RCC = assay type: functional, cell-based, Homo sapiens; conditions: Homo sapiens, BB65-RCC;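 note: growth inhibition of the cell line, measured with a cell viability assay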
Description: SANGER: Inhibition of human BB65-RCC cell growth in a cell viability assay.

TE-10 = assay type: functional, cell-based, Homo sapiens; conditions: Homo sapiens, TE-10;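 note: growth inhibition of TE-10 cells, measured by a cell viability assay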
Description: SANGER: Inhibition of human TE-10 cell growth in a cell viability assay.

MC-IXC = assay type: functional, cell-based, Homo sapiens; conditions: Homo sapiens, MC-IXC;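 note: growth inhibition of MC-IXC cells, read out with a cell viability assay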
Description: SANGER: Inhibition of human MC-IXC cell growth in a cell viability assay.

SK-LMS-1 = assay type: functional, cell-based, Homo sapiens; conditions: Homo sapiens, SK-LMS-1;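 note: growth inhibition of human SK-LMS-1 cells, read out with a cell viability assay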
Description: SANGER: Inhibition of human SK-LMS-1 cell growth in a cell viability assay.

H4 = assay type: functional, cell-based; conditions: Homo sapiens
Description: SANGER: Inhibition of human H4 cell growth in a cell viability assay.

MKN-28 = assay type: functional, cell-based, Homo sapiens; conditions: Homo sapiens, MKN-28;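 note: cell viability assay read-out, IC50 reflects suppression of growth of human MKN-28 cells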
Description: SANGER: Inhibition of human MKN28 cell growth in a cell viability assay.

ES8 = assay type: functional, cell-based, Homo sapiens; conditions: Homo sapiens, ES8;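 note: growth inhibition of human ES8 cells, read out with a cell viability assay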
Description: SANGER: Inhibition of human ES8 cell growth in a cell viability assay.

ML-2 = assay type: functional, cell-based; conditions: Homo sapiens;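 note: growth inhibition of ML-2 cells, measured with a cell viability readout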
Description: SANGER: Inhibition of human ML-2 cell growth in a cell viability assay.

AM-38 = assay type: functional, cell-based, Homo sapiens; conditions: Homo sapiens, AM-38;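 note: growth inhibition of AM-38 cells of human origin, read out by a cell viability assay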
Description: SANGER: Inhibition of human AM-38 cell growth in a cell viability assay.

NCI-H1304 = assay type: functional, cell-based; conditions: Homo sapiens;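 note: growth inhibition of the cancer cell line, measured in a cell viability assay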
Description: SANGER: Inhibition of human NCI-H1304 cell growth in a cell viability assay.

SCH = assay type: functional, cell-based, Homo sapiens; conditions: Homo sapiens, SCH;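 note: growth inhibition of human SCH cells, read out in a cell viability assay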
Description: SANGER: Inhibition of human SCH cell growth in a cell viability assay.

NUGC-3 = assay type: functional, cell-based, Homo sapiens; conditions: Homo sapiens, NUGC-3;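 note: growth inhibition of human NUGC-3 cells, read out with a cell viability assay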
Description: SANGER: Inhibition of human NUGC-3 cell growth in a cell viability assay.

SK-UT-1 = assay type: functional, cell-based, Homo sapiens; conditions: Homo sapiens, SK-UT-1;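 note: growth inhibition of SK-UT-1 cells, measured by a cell viability assay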
Description: SANGER: Inhibition of human SK-UT-1 cell growth in a cell viability assay.

NCI-H727 = assay type: functional, cell-based, Homo sapiens; conditions: Homo sapiens, NCI-H727;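 note: growth inhibition of human NCI-H727 cells, read out with a cell viability assay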
Description: SANGER: Inhibition of human NCI-H727 cell growth in a cell viability assay.

L-363 = assay type: functional, cell-based; conditions: Homo sapiens
Description: SANGER: Inhibition of human L-363 cell growth in a cell viability assay.

MDA-MB-157 = assay type: functional, cell-based, Homo sapiens; conditions: Homo sapiens, MDA-MB-157
Description: SANGER: Inhibition of human MDA-MB-157 cell growth in a cell viability assay.

NCI-H747 = assay type: functional, cell-based; conditions: Homo sapiens;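 note: growth inhibition of human NCI-H747 cells, read out by a cell viability assay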
Description: SANGER: Inhibition of human NCI-H747 cell growth in a cell viability assay.

A-427 = assay type: functional, cell-based, Homo sapiens; conditions: Homo sapiens, A-427;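 note: growth inhibition of human A-427 cells, read out by a cell viability assay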
Description: SANGER: Inhibition of human A427 cell growth in a cell viability assay.

SW1463 = assay type: functional, cell-based, Homo sapiens; conditions: Homo sapiens, SW1463;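 note: growth inhibition of SW1463 cells, determined with a cell viability assay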
Description: SANGER: Inhibition of human SW1463 cell growth in a cell viability assay.

WM-115 = assay type: functional, cell-based, Homo sapiens; conditions: Homo sapiens, WM-115
Description: SANGER: Inhibition of human WM-115 cell growth in a cell viability assay.

LS-123 = assay type: functional, cell-based, Homo sapiens; conditions: Homo sapiens, LS-123
Description: SANGER: Inhibition of human LS-123 cell growth in a cell viability assay.

DoTc2-4510 = assay type: functional, cell-based, Homo sapiens; conditions: Homo sapiens, DoTc2-4510
Daoy = assay type: functional, cell-based, Homo sapiens; conditions: Homo sapiens, Daoy;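 note: daoy cell growth inhibition, read out as cell viability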
Description: SANGER: Inhibition of human Daoy cell growth in a cell viability assay.

RD = assay type: functional, cell-based, Homo sapiens; conditions: Homo sapiens, RD
Description: SANGER: Inhibition of human RD cell growth in a cell viability assay.

CAL-12T = assay type: functional, cell-based, Homo sapiens; conditions: Homo sapiens, CAL-12T;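 note: growth inhibition of human CAL-12T cells, read out with a cell viability assay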
Description: SANGER: Inhibition of human CAL-12T cell growth in a cell viability assay.

HL-60 = assay type: functional, cell-based; conditions: Homo sapiens;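 note: growth inhibition of human HL-60 cells, read out with a cell viability assay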
Description: SANGER: Inhibition of human HL-60 cell growth in a cell viability assay.

COR-L88 = assay type: functional, cell-based; conditions: Homo sapiens;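 note: growth inhibition of COR-L88 cells, read out with a cell viability assay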
Description: SANGER: Inhibition of human COR-L88 cell growth in a cell viability assay.

RXF 393 = assay type: functional, cell-based; conditions: Homo sapiens;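 note: growth inhibition of human RXF 393 cells, read out with a cell viability assay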
Description: SANGER: Inhibition of human RXF393 cell growth in a cell viability assay.

D-247MG = assay type: functional, cell-based, Homo sapiens; conditions: Homo sapiens, D-247MG
Description: SANGER: Inhibition of human D-247MG cell growth in a cell viability assay.

ES6 = assay type: functional, cell-based, Homo sapiens; conditions: Homo sapiens, ES6;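 note: growth inhibition of human ES6 cells, read out with a cell viability assay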
Description: SANGER: Inhibition of human ES6 cell growth in a cell viability assay.

NCI-H2170 = assay type: functional, cell-based, Homo sapiens; conditions: Homo sapiens, NCI-H2170;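 note: cell viability assay measuring growth inhibition of human NCI-H2170 cancer cells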
Description: SANGER: Inhibition of human NCI-H2170 cell growth in a cell viability assay.

GAK = assay type: functional, cell-based, Homo sapiens; conditions: Homo sapiens, GAK;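 note: cell growth inhibition read out by a cell viability assay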
Description: SANGER: Inhibition of human GAK cell growth in a cell viability assay.

LCLC-97TM1 = assay type: functional, cell-based, Homo sapiens; conditions: Homo sapiens, LCLC-97TM1;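 note: cell viability assay measuring growth inhibition of human LCLC-97TM1 cells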
Description: SANGER: Inhibition of human LCLC-97TM1 cell growth in a cell viability assay.

KNS-81-FD = assay type: functional, cell-based, Homo sapiens; conditions: Homo sapiens, KNS-81-FD;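 note: growth inhibition of KNS-81-FD cells, read out with a cell viability assay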
Description: SANGER: Inhibition of human KNS-81-FD cell growth in a cell viability assay.

HCC70 = assay type: functional, cell-based, Homo sapiens; conditions: Homo sapiens, HCC70;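 note: cell viability assay measuring how strongly the compound suppresses proliferation of HCC70 cells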
Description: SANGER: Inhibition of human HCC70 cell growth in a cell viability assay.

CAL-33 = assay type: functional, cell-based, Homo sapiens; conditions: Homo sapiens, CAL-33;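 note: growth inhibition of CAL-33 cells, read out with a cell viability assay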
Description: SANGER: Inhibition of human CAL-33 cell growth in a cell viability assay.

SF-295 = assay type: functional, cell-based, Homo sapiens; conditions: Homo sapiens, SF-295; read-out: IC50;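 note: growth inhibition of SF-295 cells, read out with a cell viability assay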
Description: SANGER: Inhibition of human SF295 cell growth in a cell viability assay.

ChaGo-K-1 = assay type: functional, cell-based; conditions: Homo sapiens;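 note: growth inhibition of ChaGo-K-1 cells, read out with a cell viability assay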
Description: SANGER: Inhibition of human ChaGo-K-1 cell growth in a cell viability assay.

CAL-85-1 = assay type: functional, cell-based; conditions: Homo sapiens;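 note: growth inhibition of human CAL-85-1 cells, read out with a cell viability assay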
Description: SANGER: Inhibition of human CAL-85-1 cell growth in a cell viability assay.

HOS = assay type: functional, cell-based, Homo sapiens; conditions: Homo sapiens, HOS;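 note: growth inhibition of human HOS cells, read out with a cell viability assay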
Description: SANGER: Inhibition of human HOS cell growth in a cell viability assay.

CCC1=C[C@@H]2CN(C1)Cc1c([nH]c3ccccc13)[C@@](C(=O)OC)(c1cc3c(cc1OC)N(C)[C@H]1[C@@](O)(C(=O)OC)[C@H](OC(C)=O)[C@]4(CC)C=CCN5CC[C@]31[C@@H]54)C2 [VINORELBINE] was tested, and the IC50 (A704) was greater than 64 nM, the IC50 (MDA-MB-453) was greater than 64 nM and the IC50 (KNS-42) was 8.03 nM. For the same compound, the IC50 (COLO-320-HSR) was greater than 64 nM, the IC50 (KM12) was 2.61 nM and the IC50 (HCE-T) was greater than 64 nM. It also gave an IC50 (RCC10RGB) greater than 64 nM, an IC50 (TE-1) of 13.1 nM and an IC50 (no-11) greater than 64 nM. The IC50 (SHP77) was greater than 64 nM, the IC50 (NCI-H2405) was 50.7 nM and the IC50 (DU-4475) was 48.1 nM. For the same compound, the IC50 (BB65-RCC) was 61.8 nM, the IC50 (TE-10) was 3.62 nM and the IC50 (MC-IXC) was 1.49 nM. The IC50 (SK-LMS-1) was 1.46 nM, the IC50 (H4) was 7.85 nM and the IC50 (MKN-28) was 4.77 nM. The IC50 (ES8) was 2.72 nM, the IC50 (ML-2) was 4.32 nM and the IC50 (AM-38) was 33.5 nM. The IC50 (NCI-H1304) was 35.2 nM, the IC50 (SCH) was greater than 64 nM and the IC50 (NUGC-3) was 5.99 nM. It also gave an IC50 (SK-UT-1) of 2.23 nM, an IC50 (NCI-H727) greater than 64 nM and an IC50 (L-363) of 12.4 nM. The IC50 (MDA-MB-157) was greater than 64 nM, the IC50 (NCI-H747) was greater than 64 nM and the IC50 (A-427) was 3.1 nM. The IC50 (SW1463) was greater than 64 nM, the IC50 (WM-115) was greater than 64 nM and the IC50 (LS-123) was greater than 64 nM. It also gave an IC50 (DoTc2-4510) of 3.59 nM, an IC50 (Daoy) of 6.65 nM and an IC50 (RD) of 5.42 nM. For the same compound, the IC50 (CAL-12T) was 20.8 nM, the IC50 (HL-60) was greater than 64 nM and the IC50 (COR-L88) was 34.8 nM. The IC50 (RXF 393) was 5.06 nM, the IC50 (D-247MG) was 12.6 nM and the IC50 (ES6) was 42.4 nM. The IC50 (NCI-H2170) was 11.6 nM, the IC50 (GAK) was greater than 64 nM and the IC50 (LCLC-97TM1) was 1.56 nM. The IC50 (KNS-81-FD) was greater than 64 nM, the IC50 (HCC70) was 30.6 nM and the IC50 (CAL-33) was 5.02 nM. The IC50 (SF-295) was 12 nM, the IC50 (ChaGo-K-1) was 6.69 nM and the IC50 (CAL-85-1) was 4.9 nM. The IC50 (HOS) was 3.22 nM.

Source: ChEMBL document CHEMBL1201861, “Genomics of Drug Sensitity in Cancer screening data, Wellcome Trust Sanger Institute”
